In patent publication US20040242545A1, “Remedy for glaucoma comprising as the active ingredient compound having p13 kinase inhibitory effect” (Santen Phamaceutical Co., Ltd., priority 2001, published 2004):

Legend:
Type in all cases: in vivo
intraocular pressure [1] = assay: Intraocular pressure measurement after administration into rabbit anterior chamber; conditions: for Difference of intraocular pressure, 2 hours after administration / Difference of intraocular pressure, 4 hours after administration / Difference of intraocular pressure, 6 hours after administration: vs just before administration; for Difference of intraocular pressure, 2 hours before administration: pre-dose value vs just before administration; for Difference of intraocular pressure, just before administration: reference time point; for Maximum breadth of the intraocular pressure reduction: on 6 hours after administration
Protocol: In order to examine the influence of the compound having a PI3 kinase blocking action upon the intraocular pressure reduction, measurement of intraocular pressure was conducted using an applanation tonometer or a pneumatic applanation tonometer. LY294002 and wortmannin were provided as test compounds. The former compound was dissolved in methanol to give the concentration of 10^-1 M, and thereto was added 2-hydroxypropyl-β-cyclodextrin as a solubilizer. This solution was diluted in physiological saline to give a LY294002 solution having the concentration of 10^-3 M. The amount of used 2-hydroxypropyl-β-cyclodextrin was determined to make the final concentration thereof to be 4×10^-3 M. Wortmannin was dissolved in dimethylsulfoxide to give the concentration of 10^-1 M for use in the test of administration into anterior chamber, and the obtained solution was diluted in physiological saline to give solutions having the concentration of 10^-4 M and 10^-5 M. Furthermore, dissolution of the compound was conducted in dimethylsulfoxide to give the concentration of 10^-1 M for use in the instillation test, and the obtained solution was diluted in physiological saline to give a 0.04284% (10^-3 M) solution in a suspension state. Rabbit intraocular pressure measurement: An electric current source of a tonometer (pneutonometer model 30 classic) was turned on, and calibration was conducted. […] injection needle was attached to a microsyringe, and a test compound solution or a vehicle was aspirated therein. A rabbit positioner made of aluminum for use in administration into anterior chamber was placed on a table made of aluminum. Further, a rabbit positioner made of wood for use in measurement of intraocular pressure was separately placed on the table made of aluminum. Administration into rabbit anterior chamber: A rabbit was placed on a rabbit positioner made of aluminum for use in administration into anterior chamber, and 0.4% oxybuprocaine hydrochloride was instilled to both eyes with one drop. After fixing an eye lid retractor, the bulbar conjunctiva was held with tweezers, and the needle point was passed from corneallimbus into corneal stroma in the […] direction with the depth of about 2 to 3 mm. Thereafter, the needlepoint was pierced into the anterior chamber, where the test compound solution was infused in an amount of 20 μL. […] Following the completion of the administration operation, the rabbit was brought back to the cage. The rabbit was brought out from the cage on two hours before the administration, just before the administration, and on 2, 4 and 6 hours after the administration, and was placed on the positioner made of wood. Oxybuprocaine hydrochloride at the concentration of 0.4% was instilled to both eyes, and intraocular pressure was measured after fixing the eye lid retractor. The vehicle was administered in a similar manner. Using the intraocular pressure just before the administration as a reference, results are shown by difference (mmHg) between the intraocular pressure of the reference and the intraocular pressure at each time point of the measurement. As obvious from Table 1, the intraocular pressure reduction was observed after the administration of LY294002. Maximum breadth of the intraocular pressure reduction (maximum value of the difference between values of the group administered with the vehicle and the group administered with the test compound) was observed on 6 hours after the administration of 10^-3 M LY294002, with the value of 3.7 mmHg.

intraocular pressure [2] = assay: Intraocular pressure measurement after instillation to monkey
Protocol: (§1) In order to examine the influence of the compound having a PI3 kinase blocking action upon the intraocular pressure reduction, measurement of intraocular pressure was conducted using an applanation tonometer or a pneumatic applanation tonometer. Wortmannin was dissolved in dimethylsulfoxide to give the concentration of 10^−1 M for use in the test of administration into anterior chamber, and the obtained solution was diluted in physiological saline to give solutions having the concentration of 10^−4 M and 10^−5 M. Furthermore, dissolution of the compound was conducted in dimethylsulfoxide to give the concentration of 10^−1 M for use in the instillation test, and the obtained solution was diluted in physiological saline to give a 0.04284% (10^−3 M) solution in a suspension state. Monkey intraocular pressure measurement: Measurement of intraocular pressure was conducted using a pneumatic applanation tonometer (Alcon Japan. Ltd.). Test of instillation to monkey: The test compound solution in an amount of 20 μL was instilled to the eye to be administered. The measurement time of the intraocular pressure was on one hour before the administration, just before the administration, and on 2, 4 and 6 hours after the administration. Using the intraocular pressure just before the administration as a reference, results are shown by difference (mmHg) between the intraocular pressure of the reference and the intraocular pressure at each time point of the measurement. As obvious from Table 1, the intraocular pressure reduction was observed after the administration of LY294002. Maximum breadth of the intraocular pressure reduction (maximum value of the difference between values of the group administered with the vehicle and the group administered with the test compound) was observed on 6 hours after the administration of 10^−3 M LY294002, with the value of 3.7 mmHg.

intraocular pressure [3] = assay: Intraocular pressure measurement after administration into monkey anterior chamber
Protocol: as §1, with “Ltd.). Administration into monkey anterior chamber:” for “Ltd.). Test of instillation to monkey:”, “The administration was carried out” for “The test compound solution”, “in accordance with the process for administering” for “in an amount of 20 μL was instilled”, “the rabbit.” for “the eye to be administered.”, “The dosage amount was 10 μL, and the” for “The”

[4] = 10^−3 M LY294002, 20 μL, mean of 6
[5] = instillation, 0.04284% (10^−3 M) wortmannin suspension, 20 μL, vs just before administration, mean of 5
[6] = 10^−4 M wortmannin, 20 μL, mean of 4
[7] = 10^−5 M wortmannin, 20 μL, mean of 4
[8] = 10^−4 M wortmannin, 10 μL, vs just before administration

With O=c1cc(N2CCOCC2)oc2c(-c3ccccc3)cccc12 [LY294002, 2-(4-morpholinyl)-8-phenyl-4H-1-benzopyran-4-one] the “Difference of intraocular pressure, 2 hours after administration” value (from here on “Difference … 2 hours after administration”) (intraocular pressure [1]; [4]) was −3.2 mmHg, the “Difference of intraocular pressure, 4 hours after administration” value (“Difference … 4 hours after administration” below) (intraocular pressure [1]; [4]) was −2.7 mmHg and the “Difference of intraocular pressure, 6 hours after administration” value (shortened to “Difference … 6 hours after administration”) (intraocular pressure [1]; [4]) was −2.1 mmHg. For the same compound, the “Maximum breadth of the intraocular pressure reduction (maximum difference between vehicle group and test compound group)” value (intraocular pressure [1]; 10^−3 M LY294002, on 6 hours after administration) was 3.7 mmHg, the “Difference of intraocular pressure, 2 hours before administration” value (“Difference … 2 hours before administration” for short) (intraocular pressure [1]; 10^−3 M LY294002 group, 20 μL, mean of 6) was 1.9 mmHg and the “Difference of intraocular pressure, just before administration” value (“Difference … just before administration” for short) (intraocular pressure [1]; 10^−3 M LY294002 group, mean of 6) was 0.0 mmHg.
With COC[C@H]1OC(=O)c2coc3c2[C@@]1(C)C1=C(C3=O)[C@@H]2CCC(=O)[C@@]2(C)C[C@H]1OC(C)=O [wortmannin] the “Maximum breadth of the intraocular pressure reduction” value (intraocular pressure [2]; instillation of wortmannin (0.04284%), on 4 hours after administration) was 2.8 mmHg, the “Difference of intraocular pressure, 1 hours before administration” value (intraocular pressure [2]; instillation, 0.04284% (10^−3 M) wortmannin group, 20 μL, pre-dose value vs just before administration, mean of 5) was 1.1 mmHg and the “Difference … 2 hours after administration” value (intraocular pressure [2]; [5]) was −2.6 mmHg. The “Difference … 4 hours after administration” value (intraocular pressure [2]; [5]) was −3.4 mmHg, the “Difference … 6 hours after administration” value (intraocular pressure [2]; [5]) was −1.5 mmHg and the “Difference … just before administration” value (intraocular pressure [2]; instillation, 0.04284% wortmannin group, reference time point, mean of 5) was 0.0 mmHg. For the same compound, the “Difference … 2 hours before administration” value (intraocular pressure [1]; 10^−4 M wortmannin group, 20 μL, mean of 4) was 2.2 mmHg, the “Difference … just before administration” value (intraocular pressure [1]; 10^−4 M wortmannin group, mean of 4) was 0.0 mmHg and the “Difference … 2 hours after administration” value (intraocular pressure [1]; [6]) was −1.2 mmHg. For the same compound, the “Difference … 4 hours after administration” value (intraocular pressure [1]; [6]) was −2.8 mmHg, the “Difference … 6 hours after administration” value (intraocular pressure [1]; [6]) was −3.0 mmHg and the “Maximum breadth of the intraocular pressure reduction” value (intraocular pressure [1]; 10^−4 M wortmannin) was 6.9 mm Hg. For the same compound, the “Difference … 2 hours before administration” value (intraocular pressure [1]; 10^−5 M wortmannin group, 20 μL, mean of 4) was 1.2 mmHg, the “Difference … just before administration” value (intraocular pressure [1]; 10^−5 M wortmannin group, mean of 4) was 0.0 mmHg and the “Difference … 2 hours after administration” value (intraocular pressure [1]; [7]) was −1.5 mmHg. For the same compound, the “Difference … 4 hours after administration” value (intraocular pressure [1]; [7]) was −1.0 mmHg, the “Difference … 6 hours after administration” value (intraocular pressure [1]; [7]) was 0.6 mmHg and the “Maximum breadth of the intraocular pressure reduction” value (intraocular pressure [1]; 10^−5 M wortmannin) was 3.3 mmHg. The “Difference of intraocular pressure, 1 hours before administration” value (intraocular pressure [3]; 10^−4 M wortmannin group, 10 μL, pre-dose value vs just before administration) was 0.7 mmHg, the “Difference … just before administration” value (intraocular pressure [3]; 10^−4 M wortmannin group, reference time point) was 0.0 mmHg and the “Difference … 2 hours after administration” value (intraocular pressure [3]; [8]) was −4.8 mmHg. For the same compound, the “Difference … 4 hours after administration” value (intraocular pressure [3]; [8]) was −4.3 mmHg, the “Difference … 6 hours after administration” value (intraocular pressure [3]; [8]) was −2.1 mmHg and the “Maximum intraocular pressure reduction” value (intraocular pressure [3]; wortmannin (10^−4 M), on 2 hours after administration) was 4.5 mmHg.
